Test results: patent US12569468B2, “Use of palovarotene in treatment against HBV virus” (YANG SHENG TANG COMPANY, LTD., priority 2020, dated 2026)

Columns and labels:
Assay type in all cases: cell-based, hepatitis B virus
HBV = assay: Therapeutic effect in high copy replication model HepAD38; conditions: 5 μM
Description: HepAD38 is a hepatoma cell line (D genotype) that stably integrates the HBV genome, it expresses HBV under conditions that may be regulated with tetracycline. […] The HepAD38 has a DNA level about 10 times that of HepG2.2.15, and thus is a high-copy HBV in vitro replication cell model (for the construction method of this cell model, please refer to: Ladner S K, Otto M J, Barker C S, et al. Inducible expression of human hepatitis B virus (HBV) in stably transfected hepatoblastoma cells: a novel system for screening potential inhibitors of HBV replication. Antimicrob Agents Chemother. 1997; 41(8):1715-1720.).
This experiment was carried out in a 24-well culture plate. […] About 4×10^5HepAD38 cells were plated in each well, 500 μL of medium G containing tetracycline hydrochloride (Tetracycline) was added to each well, Day 0 was set 48 h after the cells were plated, and the medium G containing tetracycline hydrochloride (Tetracycline) was removed at the same time, fresh drug-containing medium F was used for replacement, and then fresh drug-containing medium F was used for replacement every two days until the 8th day, and the levels of HBsAg in the cell supernatant and intracellular HBV DNA were detected on the 8th day. For the method for detection, please refer to Example 1.

HBV cccDNA [1] = assay: Southern blot detection of HBV cccDNA in infected HepG2-hNTCP 2B1; conditions: 5 μM, day 6 to day 12 after infection, compared with interferon IFNα 500 IU control group and blank group
Description: Southern blot experiment was carried out on a 10 cm^2 culture plate. About 5×10^6 HepG2-hNTCP 2B1 cells were plated in each 10 cm^2 culture plate, and medium B was added. After the cells adhered, medium A was used for replacement to perform the induction with Doxycycline during the whole experiment. HBV infection was performed 4 days after the induction with Doxycycline, and the amount of HBV for infection was 1000 MOI. Before infection, HBV was diluted in medium C to obtain HBV solution, and the infection volume was 5 mL. During infection, the cell supernatant was first removed by suction, the HBV solution was added to the cells, the cells were incubated for 24 hours, then the supernatant was collected as the sample of Day 0. Then the cells were washed three times with PBS, and fresh medium A was used for replacement. After that, the supernatant was collected every two days for detection, fresh medium A was used for replacement. […]

HBV cccDNA [2] = assay: Southern blot detection of HBV cccDNA in HepAD38; conditions: 5 μM, 8 days, inhibitory effect inferior to that of control group (ETV 5 μM)
Description: The Southern blot experiment was performed on 6 cm^2 culture plates. About 4.2×10^6 HepAD38 cells were plated in each 6 cm^2 culture plate, and medium G containing tetracycline hydrochloride (Tetracycline) was added. During the experiment, the medium G containing tetracycline hydrochloride was removed, and the drug-containing medium F was added at the same time for drug treatment, in which the treatment concentration of test drug Palovarotene was 5 μM, and the control group used Entecavir (ETV) at a concentration of 5 μM for treatment, and the treatment time was 8 days.
The specific Southern blot detection method was carried out with reference to Example 3.

SMILES: CC1(C)CCC(C)(C)c2cc(Cn3cccn3)c(/C=C/c3ccc(C(=O)O)cc3)cc21 [Palovarotene]
- surface antigen production (HBsAg in cell supernatant) (HBV; day 8, p<0.01): significant inhibitory effect
- HBV DNA (intracellular) (HBV; day 8, p<0.05): significant inhibitory effect
- level of HBV cccDNA (Southern blot) (HBV cccDNA [1]): significantly lower
- level of HBV cccDNA (Southern blot) (HBV cccDNA [2]): significantly inhibit
